The numbers were not newly measured in paper PMC10994420, “Development of peptides for targeting cell ablation agents concurrently to the Sertoli and Leydig cell populations of the testes: An approach to non-surgical sterilization” (PLOS ONE, 2024), which cites them from elsewhere.

For data set [1] the following is noted: maleimide form with valine-citrulline linker; ref https://www.chemsrc.com/en/cas/646502-53-6_1197872.html. The text has this: Among these criteria, aqueous solubility was considered an important factor, both in the context of reaction with Auristatin and for use of biocompatible solvents for in vivo delivery.
The conditions of data set [2]: no reference given. As for the experimental part:
Four treatment groups of ten 55-day-old male Swiss male CD1 mice were injected intraperitoneally. Treatments included: (1) […] vehicle control (30% Solutol (Kolliphor)/PBS), (2) 300 μL/30 g 14.5 mM FSH2Menadione, (3) 100 μL/30g 425 μM LH2Aur, or (4) 300 μL/30 g 14.5 mM FSH2Menadione plus 100 μL/30g 425 μM LH2Aur (consecutive injections, 16 h apart). The dose of 1 mg/kg of conjugated Auristatin was determined with reference to the work by Doronina et al., who determined the maximum tolerated dose (MTD) of conjugated Auristatin for mice is 1.1 mg/kg. Solubility of the FSH2Menadione was ...

Numbered stars: 1 amine (or outer) side, 2 acyl side, 3 side chain; on linkers, the order of the positions; unused ones are H or OH. Square brackets hold non-standard residues; d marks the D form. Peptide text beside a SMILES is read from it. * marks the point of attachment. Dolaproine = CO[C@@H]([C@@H]1CCCN1)[C@@H](C)C(=O)O; Hexanoyl(6-maleimido) = O=C1C=CC(=O)N1CCCCCC(=O)*; Dil = CC[C@H](C)[C@H](NC)[C@@H](CC(=O)O)OC; PABC = O=C(OCc1ccc(N[*:1])cc1)[*:2]; X1 = C[C@@H](N*)[C@@H](O)c1ccccc1; Cit = NC(=O)NCCC[C@H](N)C(=O)O; NMeV = CN[C@H](C(=O)O)C(C)C

In the case of `CC[C@H](C)[C@@H]([C@@H](CC(=O)N1CCC[C@H]1[C@H](OC)[C@@H](C)C(=O)N[C@H](C)[C@@H](O)c1ccccc1)OC)N(C)C(=O)[C@@H](NC(=O)[C@H](C(C)C)N(C)C(=O)OCc1ccc(NC(=O)[C@H](CCCNC(N)=O)NC(=O)[C@@H](NC(=O)CCCCCN2C(=O)C=CC2=O)C(C)C)cc1)C(C)C` [Auristatin, maleimide-valine-citrulline- para-aminobenzyloxycarbonyl -monomethyl-Auristatin E] ({Hexanoyl(6-maleimido)}-V[Cit][PABC][NMeV]V[Dil][Dolaproine]-X1), in data set [1], the aqueous solubility entry was “very poor” and the logP value is listed as 6.04.

Regarding `CC1=CC(=O)c2ccccc2C1=O` [menadione, 2-methyl-1,4-naphthoquinone], the MTD in data set [2] was 830 mg/kg.
